Measured values as given in US20070197591A1, “USE OF PALIPERIDONE FOR THE TREATMENT OF A MENTAL DISORDER IN A PSYCHIATRIC PATIENT WITH REDUCED HEPATIC FUNCTION” (priority 2005, published 2007).

Columns and labels:
[1] = Safety and tolerability of 1 mg IR paliperidone in healthy and hepatically-impaired subjects; format: in vivo, human
Description: Methodology: This was a single-dose, parallel-group, open-label, single-center, Phase I study of IR paliperidone in subjects having either normal or moderately impaired hepatic function. The groups, consisting of 10 subjects each, were demographically matched with respect to age, weight, sex, and ethnicity. The study consisted of a screening period of up to 3 weeks and an open-label, single-dose treatment period (Days 1 through 5). On Day 1, a single dose of 1 mg IR paliperidone oral solution was administered after a fast of at least 10 hours; subjects continued to fast for 4 hours following study drug administration. The 96-hour follow-up consisted of serial sample collection of blood and urine for pharmacokinetic analysis and safety and tolerability assessments. Subjects remained confined to the study site through the 72-hour pharmacokinetics sampling, and consumed standard institutional meals while in the study site. Subjects were released after the 72-hour sampling, then returned to the study site on Day 5 before the 96-hour pharmacokinetics sampling: end-of-study procedures were performed immediately hereafter. A blood sample for DNA isolation was collected to allow for genetic analysis as necessary. Safety: Adverse events, clinical laboratory tests, including prolactin, vital sign measurements, physical examinations, and 12-lad electrocardiograms (ECGs) were analyzed to assess safety. Safety: All subjects were analyzed; statistical analyses were description [? Does info need to be added here?].

clinical = assay: clinical; design: species or system human; conditions: in vivo
Excerpt: Objectives: to investigate the metabolic pathways of paliperidone and excretion of paliperidone and its metabolites in healthy adult male subjects, both CYP2D6 poor and extensive metabolizers, after administration of a single 1-mg oral dose of ^14C-paliperidone. In addition, to evaluate the safety and tolerability of paliperidone, as well as the relationship between genotypes (CYP2D6, CYP3A4, CYP3A5, UGT1A1, and UGT1A6) and exposure to paliperidone and its metabolites.
Methodology: Single-center, single-dose open-label study of the absorption, metabolism, and excretion (AME) of paliperidone in healthy men (3 extensive and 3 poor metabolizers based on CPY2D6 phenotype). […] Each subject received a single oral dose of ^14C-paliperidone with total radioactivity below […] (16 μCi). Blood samples for plasma pharmacokinetic profile were obtained immediately before study drug administration and 0.5, 1, 1.5, 3, 6, 12, 16, 36, 48, 72, 96, 120, 144 and 168 hours postdose. Blood samples were obtained 2, 4, 8, and 24 hours postdose for determination of ^14C in whole blood. Samples for determination of serum creatinine were obtained 2, 4, 8, and 24 hours postdose. Urine was collected immediately prior to drug administration and from 0-4, 4-8, 8-12, 12-16, 16-24, 24-36, 36-48, 48-72, 96-120, 120-144, and 144-168 hours after study drug administration. Fecal samples were colleted per each stool, once before study drug administration and in the period from 0-168 hours after study drug administration. Collections of urine and feces (per 24 hours) were to continue beyond 168 hours, to a maximum of 336 hours (Day 15) for subjects who excrete radioactivity slowly (2 latest 24-hour urine collections each >2% of total radioactive dose) or have <7 feces stool samples over the 0 to 168-hour period. ^14C radioactivity was measured in plasma, urine, and feces. Aliquots of the 0- through 24-hour urine collections were analyzed for cretinine. Plasma concentrations of paliperidone and risperidone were determined by means of a validated LC-MS/MS method. The ^14C-labeled moiety in plasma and urine was determined by liquid scintillation counting. For all plasma samples, the lower limits of quantification for paliperidone and risperidone were 0.100 ng/mL. For all plasma and urine samples the lower limits of quantification for ^14C-palieridone was 72 dpm/mL (=2.0 n g-eq/mL).
Number of Subjects (Planned and Analyzed): Six healthy men, 3 extensive and 3 poor metabolizers based on CYP2D6 phenotype were to participate in the study. Five subjects, 3 extensive and 2 poor metabolizers, received a single dose of ^14C-paliperidone, completed the study (i.e., completed all assessments through Day 8) and were considered valuable for safety (the Safety Analysis Set), as well as for pharmacokinetics.
Test Product, Dose and Mode of Administration Batch No.: Single oral 0.988-mg dose of ^14C-paliperidone, oral solution (aqueous formulation at a final concentration of 0.0984 mg/mL). Batch No.: unlabeled paliperidone oral solution: ZR076477EIA031 (manufacturing date: 23 Apr. 2003, retest date: 23 Oct. 2004): ^14C-paliperidone: 1763 (expiration date: not applicable)
Criteria for Evaluation: Pharmacokinetics: Plasma paliperidone. ^14C radioactivity and metabolite profiles were determined. Plasma Cmax, tmax, AUClast, AUC24, AUC∞, λZ, t1/2term, CL/F of ^14C and paliperidone were estimated by non-compartmental analysis. Based on the individual urine excretion data and on the serum creatinine concentrations, Ae, Ae, % dose, CLR, CLR,24h and CLer and paliperidone and CLGFR, and CLact of paliperidone were estimated. The excretion half-life of ^14C in urine was also estimated based on excretion rate-time profiles.
Statistical Methods: Pharmacokinetics: Plasma concentrations of ^14C and paliperdone as well as estimates for pharmacokinetic parameters were listed and graphically presented, and the excretion analysis of total radioactivity in plasma, urine and feces were summarized. […]

[2] = hepatically-impaired subjects (n = 10)

effect of genotype (CYP2D6, UGT1A1 or UGT1A6) on the plasma exposure of TR and UD (clinical): No effect of genotype
share of UD excreted by means of filtration (clinical; male, human): About 50%
CL renal (clinical; male, human, CLR): 53.1 ± 9.47 mL/min
Tmax (clinical; male, human, po): 1.33 ± 0.289 h
cumulative urinary excretion of unchanged paliperidone (clinical; male, human, po, 7 days): 59%
AUC (clinical; male, human, po, AUC24): 0.111 ± 0.022 µg·h/mL
AUC(0-inf) (clinical; male, human, po, AUC∞): 0.187 µg·h/mL
Cmax (clinical; male, human, po, Cmax): 8.85 ng/mL
Tmax (clinical; male, human, po, tmax): 1.3 h
Compound: Cc1nc2n(c(=O)c1CCN1CCC(c3noc4cc(F)ccc34)CC1)CCCC2O (centres unmarked) [Paliperidone, paliperidone]
tolerability ([1]; 1 mg, healthy and hepatically-impaired subjects): tolerated equally well
clinically important abnormal ECG values (including QT values) ([1]; both groups): no subjects had clinically important abnormal ECG values
orthostatic hypotension ([1]; both groups): no subject in either group met the criteria for orthostatic hypotension
subjects with treatment-emergent increase in hepatic enzymes ([1]; healthy subjects): 1
subjects with increases in prolactin levels reported as adverse events ([1]; healthy subjects (n = 10)): 6
subjects with treatment-emergent increase in hepatic enzymes ([1]; hepatically-impaired subjects): 1
subjects reporting dizziness [1, 2]: 2
subjects with increases in prolactin levels reported as adverse events [1, 2]: 8
